# Source: patent US20120010177A1, “MicroRNA Modulators and Method for Identifying And Using The Same” (The Wistar Institute / North Carolina State University, priority 2008, published 2012)
# Tested on: miR-21
# Test: High throughput primary miR-21 FLuc reporter assay (concentration-response)
# Type: cell-based, human
# Conditions: Homo sapiens
# Procedure, shortened: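 HeLa cells carrying a Luc-miR-21 firefly luciferase reporter were treated with compound for 48 h. miR-21 inhibition was read as increased luciferase signal. Concentration-response data were fitted with a four-parameter logistic model.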
row,SMILES,AC50 [µM]
1,CC(=O)COc1ccc2c3c(c(=O)oc2c1C)CCCCC3 [Compound 261],3.29
2,COc1ccc(-c2c/c(=N\CC(=O)O)c3ccccc3o2)cc1.[O-][Cl+3]([O-])([O-])O [Compound 263],3.69
3,COP(=O)(OC)C(Nc1ccc(C)cc1)c1ccc([N+](=O)[O-])cc1 (stereo not drawn) [Compound 286],10.4

# Same assay, conditions: Homo sapiens, Table 12 singletons; read-out: AC50
row,SMILES,AC50 [µM]
1,COc1ccc(NCc2cccn2-c2nnc(N3CCC(C)CC3)s2)c(OC)c1 [Compound 255],1.85
2,COc1ccc(-c2nc3c(Br)c(N)c(Br)cc3o2)cc1 [Compound 256],2.07
3,c1ccc(-c2onc3cc4c(cc23)OCCO4)cc1 [Compound 257],2.07
4,Cc1ccc(-c2nc3ccccc3o2)cc1NC(=S)NC(=O)c1cc2ccccc2o1 [Compound 258],2.93
5,COc1ccc(-c2csc(NC(=O)COC(=O)c3ccc(Br)o3)n2)cc1 [Compound 259],2.93
6,O=S(=O)(c1ccc(F)cc1)n1ccc(-c2cnc(-c3ccccc3)s2)n1 [Compound 260],2.93
7,Nc1c(-c2ccccc2)n[nH]c1-c1ccccc1 [Compound 262],3.29
8,Cc1ccc2[nH]c3c(S)ncnc3c2c1 [Compound 264],3.69
9,c1ccc(C2=Nn3c(nnc3-c3cc(-c4ccccc4)[nH]n3)SC2)cc1 [Compound 265],3.69
10,Nc1c(Cl)cc2c(c1Oc1ccccc1)C(=O)c1ccccc1C2=O [Compound 266],4.14
11,O=C1C(Nc2ccccc2)=C2CCCC=C2N1c1ccccc1 [Compound 267],4.14
12,Fc1cccc(/C=N/N=C(\S)Nc2ccccc2Cl)c1 [Compound 268],4.65
13,O=S(=O)(c1cccc2nsnc12)N1CCc2ccccc21 [Compound 269],4.65
14,COCCC/N=C(\S)N/N=C/c1ccc(N(C)C)cc1Cl [Compound 270],5.85
15,O=C(Nc1ccccc1)c1cc2n(n1)C(C(F)(F)F)CC(C1CC1)N2 (stereo not drawn) [Compound 272],6.56
16,COC(=O)c1ccc(Cn2nnc3sc4c(c3c2=O)CCCC4)cc1 [Compound 273],6.56
17,NC(=O)COC(=O)c1ccc2noc(-c3ccccc3)c2c1 [Compound 274],6.56
18,N#CC1=C(SCC(=O)Nc2ccccc2)NC(=O)CC1c1ccc(O)cc1 (stereo not drawn) [Compound 275],6.56
19,Oc1csc(Cc2nc(-c3ccccc3F)cs2)n1 [Compound 276],6.56
20,CSc1ccc(-c2cccc([N+](=O)[O-])c2)nn1 [Compound 277],6.56
21,COc1ccc(C2CC(C)(c3ccc(OC)cc3)Nc3ccccc3N2)cc1 (stereo not drawn) [Compound 278],7.36
22,COc1cc(O)sc1/C=N/c1ccc(Cl)cc1 [Compound 279],7.36

row,SMILES,AC50 [µM]
1,O=C(CN1c2ccc(Br)cc2-c2ccccc2S1(=O)=O)N1CCCCC1 [Compound 280],7.36
2,C[C@]12CC[C@H]3C(=CCc4cc(O)ccc43)[C@@H]1CCC2=O [Compound 281],7.36
3,CN(C)c1ccc(-n2cccc2/C=N/n2cnnc2)cc1 [Compound 282],8.26
4,Cn1nc(NC(=O)C(F)(F)F)c2ncc(-c3ccc(Cl)cc3)nc21 [Compound 283],9.27
5,NC1=NC(=O)/C(=C/c2cn(Cc3ccccc3)c3ccccc23)S1 [Compound 284],9.27
6,CCCCC12CN3CCN(CC(C3)/C1=N/NC(=O)c1ccccc1N)C2 [Compound 285],9.27
7,COc1ccc(/C=C/C(=O)NC2CCCCCC2)cc1S(=O)(=O)N1CCOCC1 [Compound 287],10.4
8,CCC(=O)Oc1ccc(NC(=O)CSCc2ccccc2)cc1 [Compound 288],11.7
9,COc1ccc(C(CC(=O)Nc2ccc(C(C)=O)cc2)N2Cc3ccccc3C2=O)cc1 (stereo not drawn) [Compound 289],11.7
10,CNc1cc([N+](=O)[O-])ccc1/N=C/C=C(\O)c1cccs1 [Compound 290],11.7
11,CCc1ccc(NC(=O)NCCCN2CCCC2=O)cc1 [Compound 291],11.7
12,CCOC(=O)c1s/c(=N/C(=O)c2c(F)cccc2F)n(C)c1C [Compound 293],13.1
13,O=c1c(=Nc2ccccc2O)c(=O)c2ccccc12 [Compound 294],13.1
14,CC1(C)Cc2nc3oc4c(S)ncnc4c3cc2CO1 [Compound 295],13.1
15,Cc1nc2ccc(/N=C(\S)N3CCC(C)CC3)cc2nc1C [Compound 296],13.1
16,Cc1ccc2nc(C)c(/C=C/C(=O)c3ccco3)cc2c1 [Compound 297],14.7
17,O=C(c1ccc(COCC(F)(F)F)cc1)N1CCN(c2ccccn2)CC1 [Compound 298],14.7
18,Nc1ccc2c(c1)Cc1cc([N+](=O)[O-])ccc1-2 [Compound 299],14.7
19,CC(C)N1C(=O)CN(C2CCCCCC2)C(=O)C1c1ccccc1F (stereo not drawn) [Compound 301],14.7
20,CC(/C=C/c1ccccc1)=N\N/C(S)=N/C(C)C [Compound 302],14.7
21,CCOc1cccc(OCCOc2ccccc2[N+](=O)[O-])c1 [Compound 303],14.7
22,Cc1ccc(/N=C(/c2cccs2)N2CCOCC2)cc1 [Compound 304],14.7

row,SMILES,AC50 [µM]
1,Cc1ccc2c(c1)NCC(C(=O)NC1CCC(C)CC1)O2 (stereo not drawn) [Compound 305],14.7
2,CCN(CC)C(=O)CS/C(=N/C#N)Nc1ccccc1F [Compound 306],14.7
3,CCc1cccc(CC)c1N(COC)C(=O)Cn1c(CC)nc2ccccc21 [Compound 307],14.7
4,CC(C)(C)c1ccc(CN2C(=O)c3ccccc3S2(=O)=O)cc1 [Compound 308],14.7
5,CCn1c(=O)c(C(=O)Nc2ccccc2S(N)(=O)=O)c(O)c2ccccc21 [Compound 309],14.7
6,COc1ccc(-c2nn3c(-c4ccccc4)nnc3s2)cc1OC [Compound 310],14.7
7,Cn1nc2c3ccccc3n(Cc3ccccc3)c2nc1=S [Compound 311],14.7
8,CC(=O)O[C@H]1C[C@@]2(C)[C@@H](C[C@@H](O)[C@H]3[C@@]4(C)CC[C@@H](O)[C@@H](C)C4CC[C@@]32C)/C1=C(\CCC=C(C)C)C(=O)O (stereo partly drawn) [Compound 312],14.7
9,Cc1cc(CC(C)C)n(-c2nc3ccccc3c(=O)n2OCC(N)=O)n1 [Compound 313],14.7
10,c1csc(-c2nn3c(C4COc5ccccc5O4)nnc3s2)c1 (stereo not drawn) [Compound 314],16.5
11,O=C(CC1NCCc2ccccc21)Nc1cccc(Cl)c1 (stereo not drawn) [Compound 315],16.5
12,CNc1nc(C)c(C(=O)OCc2ccccc2)s1 [Compound 316],16.5
13,O=C(NC12CC3CC(CC(C3)C1)C2)N1CCN(C(=O)c2ccco2)CC1 [Compound 317],16.5
14,CCc1ccc(N2C(=O)Cc3c2nc(N)c(C#N)c3N)cc1 [Compound 318],16.5
15,CCCNC(=O)OCc1cccnc1Sc1ccc(C)cc1 [Compound 319],16.5
16,COC(=O)c1ccc(CN2C(=O)NC3(CCCCC3)C2=O)cc1 [Compound 320],16.5
17,O=c1n(Cc2ccccc2)nc2n1-c1ccccc1SC2 [Compound 321],16.5
18,CC(=O)N1N=C(c2ccc(C)cc2)OC1c1cccnc1 (stereo not drawn) [Compound 322],16.5
19,CCCCCc1nc2c(=O)n(C)c3ccccc3c2o1 [Compound 324],16.5
20,CN1CCN(/N=C/c2nc(-c3ccc(Cl)cc3)n3ccccc23)CC1 [Compound 325],16.5
21,C#CN/C(=N\CC=C)SCCc1ccccc1 [Compound 326],16.5
22,c1ccc(-c2nnc(CN3CCCCC3)o2)cc1 [Compound 327],16.5

row,SMILES,AC50 [µM]
1,O=c1c(NCc2cccs2)nccn1-c1ccc(F)cc1 [Compound 328],16.5
2,CCOC(=O)N1CCN(C(=O)CSCc2ccccc2Cl)CC1 [Compound 329],16.5
3,O=C(Nc1ccc(N2CCOCC2)cc1)c1cc(F)c(F)cc1Cl [Compound 330],16.5
4,CCC(C)NC(=O)c1ccc2c(c1)S(=O)(=O)c1ccccc1C2=O (stereo not drawn) [Compound 331],16.5
5,CSc1c(C#N)c(N)c(C#N)c2c1COC(C)(C)C2 [Compound 332],18.5
6,CCOC(=O)Nc1ccc2c(c1)ncn2C1CCCCC1 [Compound 333],18.5
7,CC1Oc2ccccc2N(CC(=O)NCc2cccs2)C1=O (stereo not drawn) [Compound 334],18.5
8,CCOC(=O)C1CCCN(Cc2cccc(Cl)c2)C1 (stereo not drawn) [Compound 335],18.5
9,Nc1cccc(CCc2nc3ccccc3[nH]2)c1 [Compound 336],18.5
10,CC(=O)N(C)c1ccc(N/C(S)=N/c2cccc3ccccc23)cc1 [Compound 337],18.5
11,Cn1c(=N)n(CC(=O)C(C)(C)C)c2ccccc21 [Compound 338],18.5
12,O=C(NC1CCCCCC1)C1CCCN(c2ncccn2)C1 (stereo not drawn) [Compound 339],18.5
13,COC(=O)C1C(=O)C=C(Nc2ccc(F)cc2F)CC1c1ccccc1 (stereo not drawn) [Compound 340],18.5
14,CCN(CC)CCCNC(=O)CCC(=O)Nc1ccc2nc(N3CCC(C)CC3)cc(C)c2c1 [Compound 341],18.5
15,Cc1ccc(/C=N/NC(=O)NC2CCCCC2)o1 [Compound 342],18.5
16,CCNc1ccc(/N=N/c2c(C)n(C)n(-c3ccccc3)c2=O)cc1 [Compound 344],16.5
17,O=C(CN1c2ccc(Br)cc2-c2ccccc2[S+]1(=O)[O-])N1CCCCC1 [Compound 345],9.27
18,Cc1ccc2oc(=O)c(/C=C(\O)c3cccs3)nc2c1 [Compound 346],14.7
19,COc1ccc(C2Nc3ccccc3C(=O)N2c2ccc(C)cc2)cc1Cn1nc(C)c([N+](=O)[O-])c1C (stereo not drawn) [Compound 347],3.09

# Same assay, conditions: Table 12 singletons; concentration-response curve class
row,SMILES,Curve Class
1,"Cc1cccc2c1-c1sc(C(=O)Nc3cccnc3)cc1CO2 [Compound 323, CC1═C/C═C\C2═C\1\C3═C(CO2)\C═C(/S3)C(═O)NC4═C/C═C\N═C\4]",−2.2

# Same assay, conditions: Table 12 singletons; negative values as printed
row,SMILES,Efficacy
1,"Cc1cccc2c1-c1sc(C(=O)Nc3cccnc3)cc1CO2 [Compound 323, CC1═C/C═C\C2═C\1\C3═C(CO2)\C═C(/S3)C(═O)NC4═C/C═C\N═C\4]",−70.23

# Same assay, conditions: Table 12 singletons; read-out: AC50
row,SMILES,AC50 [µM]
1,Cn1nc(NC(=O)C(F)(F)F)c2ncc(-c3ccc(Cl)cc3)nc21 [Compound 292],13.1
2,"Cc1cccc2c1-c1sc(C(=O)Nc3cccnc3)cc1CO2 [Compound 323, CC1═C/C═C\C2═C\1\C3═C(CO2)\C═C(/S3)C(═O)NC4═C/C═C\N═C\4]",16.5
3,COC(=O)C1C(=O)C=C(Nc2ccc(F)cc2F)CC1c1ccccc1 (stereo not drawn) [Compound 343],18.5
